For 14 compounds, IC50 results are on record in patent US20140073651A1, “BENZAMIDE DERIVATIVES AS P2X7 RECEPTOR ANTAGONISTS” (Actelion Pharmaceuticals Ltd., priority 2011, published 2014).

As usually defined, the IC50 is the concentration that inhibits the measured activity by half.

Structures are written as SMILES.

For the experiment, the target named is T1, human recombinant P2X7 receptor (Homo sapiens, UniProt Q99572).
T1 construct: expressed in transfected cells
T1 sequence (Q99572 1-595): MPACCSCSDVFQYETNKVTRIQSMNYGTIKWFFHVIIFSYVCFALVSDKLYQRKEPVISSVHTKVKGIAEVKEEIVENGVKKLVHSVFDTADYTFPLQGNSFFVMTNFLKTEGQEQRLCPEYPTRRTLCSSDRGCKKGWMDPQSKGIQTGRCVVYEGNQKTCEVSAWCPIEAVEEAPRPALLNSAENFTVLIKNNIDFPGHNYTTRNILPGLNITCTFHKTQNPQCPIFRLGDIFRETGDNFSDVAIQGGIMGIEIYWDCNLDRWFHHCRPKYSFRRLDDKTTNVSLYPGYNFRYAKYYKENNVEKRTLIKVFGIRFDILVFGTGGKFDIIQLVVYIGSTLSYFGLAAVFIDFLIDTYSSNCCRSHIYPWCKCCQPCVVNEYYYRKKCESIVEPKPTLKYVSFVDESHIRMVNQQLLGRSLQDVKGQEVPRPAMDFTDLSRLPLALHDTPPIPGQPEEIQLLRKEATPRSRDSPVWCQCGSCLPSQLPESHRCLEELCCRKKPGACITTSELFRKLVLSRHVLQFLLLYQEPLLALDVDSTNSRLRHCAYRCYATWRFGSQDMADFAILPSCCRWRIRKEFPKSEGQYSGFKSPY
Put plainly: YO-PRO assay (YO-PRO-1 uptake) in HEK cells stably expressing P2X7. Type of experiment: cell-based. The conditions noted are these: HEK-293 cells expressing human recombinant P2X7 receptor; ATP 250 μM, 90 minutes; YO-PRO-1 fluorescence (FLIPR tetra); read-out: IC50 (antagonistic activity with respect to the P2X7 receptor). Put shortly:
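Antagonist serially diluted (duplicates) on P2X7-expressing HEK cells in buffer with 0.5 μM YO-PRO-1; dye uptake followed on FLIPR Tetra over four time points. IC50 from maximum fluorescence intensity versus compound concentration.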
Consider `COc1nccc(S(=O)(=O)c2ccc(Cl)c(C(=O)NCC3(O)CCCCC3)c2)n1` [Example 141, 2-Chloro-N-(1-hydroxy-cyclohexylmethyl)-5-(2-methoxy-pyrimidine-4-sulfonyl)-benzamide], for which the half-maximal inhibitory concentration (IC50) is 3890 nM.

Take `O=C(NCC1(O)CCCCC1)c1cc(Cn2ccccc2=O)ccc1Cl` [Example 142, 2-Chloro-N-(1-hydroxy-cyclohexylmethyl)-5-(2-oxo-2H-pyridin-1-ylmethyl)-benzamide]: the IC50 amounted to 80 nM.

In the case of `O=C(NCC1(O)CCCCC1)c1cc(Cn2cccnc2=O)ccc1Cl` [Example 143, 2-Chloro-N-(1-hydroxy-cyclohexylmethyl)-5-(2-oxo-2H-pyrimidin-1-ylmethyl)-benzamide], the half-inhibitory concentration (IC50) is 377 nM.

Regarding `O=C(NCC1(O)CCCCC1)c1cc(Cn2ccc(=O)[nH]c2=O)ccc1Cl` [Example 144, 2-Chloro-5-(2,4-dioxo-3,4-dihydro-2H-pyrimidin-1-ylmethyl)-N-(1-hydroxy-cyclohexylmethyl)-benzamide], the IC50 is 1390 nM.

For `O=C(NCC1(O)CCCCC1)c1cc(Cc2ccccn2)ccc1Cl` [Example 145, 2-Chloro-N-(1-hydroxy-cyclohexylmethyl)-5-pyridin-2-ylmethyl-benzamide], the IC50 came to 21 nM.

On to `CSc1nccc(Cc2ccc(Cl)c(C(=O)NCC3(O)CCCCC3)c2)n1` [Example 146, 2-Chloro-N-(1-hydroxy-cyclohexylmethyl)-5-(2-methylsulfanyl-pyrimidin-4-ylmethyl)-benzamide], for which the IC50 was 400 nM.

For the compound `O=C(NCC1(O)CCCCC1)c1cc(Cc2cc[nH]c(=O)n2)ccc1Cl` [Example 147, 2-Chloro-N-(1-hydroxy-cyclohexylmethyl)-5-(2-oxo-1,2-dihydro-pyrimidin-4-ylmethyl)-benzamide], the concentration for half-maximal inhibition (IC50) was 123 nM.

Consider `COc1nccc(Cc2ccc(Cl)c(C(=O)NCC3(O)CCCCC3)c2)n1` [Example 148, 2-Chloro-N-(1-hydroxy-cyclohexylmethyl)-5-(2-methoxy-pyrimidin-4-ylmethyl)-benzamide], for which the IC50 turned out to be 343 nM.

As for `O=C(NCC1(O)CCC(F)(F)CC1)c1cc(Cc2cc[nH]c(=O)n2)ccc1Cl` [Example 149, 2-Chloro-N-(4,4-difluoro-1-hydroxy-cyclohexylmethyl)-5-(2-oxo-1,2-dihydro-pyrimidin-4-ylmethyl)-benzamide], the half-inhibitory concentration (IC50) worked out at 33 nM.

Turning to `O=C(c1ccc(Cl)c(C(=O)NCC2(O)CCCCC2)c1)c1cc[nH]c(=O)n1` [Example 150, 2-Chloro-N-(1-hydroxy-cyclohexylmethyl)-5-(2-oxo-1,2-dihydro-pyrimidine-4-carbonyl)-benzamide], the IC50 was 77 nM.

Consider `O=C(NCC1(O)CCCCC1)c1cc(C(F)(F)c2cc[nH]c(=O)n2)ccc1Cl` [Example 151, 2-Chloro-5-[difluoro-(2-oxo-1,2-dihydro-pyrimidin-4-yl)-methyl]-N-(1-hydroxy-cyclohexylmethyl)-benzamide], for which the IC50 was 31 nM.

Take `Cc1ccc(N(C)c2ccnc(Cl)n2)cc1C(=O)NCC1(O)CCCCC1` [Example 153, 5-[(2-Chloro-pyrimidin-4-yl)-methyl-amino]-N-(1-hydroxy-cyclohexylmethyl)-2-methyl-benzamide]: the half-maximal inhibitory concentration (IC50) was 702 nM.

As to `COc1nccc(N(C)c2ccc(C)c(C(=O)NCC3(O)CCCCC3)c2)n1` [Example 154, N-(1-Hydroxy-cyclohexylmethyl)-5-[(2-methoxy-pyrimidin-4-yl)-methyl-amino]-2-methyl-benzamide], the half-maximal inhibitory concentration (IC50) was found to be 629 nM.

As for `Cc1ccc(N(C)c2cc[nH]c(=O)n2)cc1C(=O)NCC1(O)CCCCC1` [Example 155, N-(1-Hydroxy-cyclohexylmethyl)-2-methyl-5-[methyl-(2-oxo-1,2-dihydro-pyrimidin-4-yl)-amino]-benzamide], the IC50 came out at 199 nM.
